Results published in article PMC6269755, “In Vitro Antiprotozoal Activity of Triterpenoid Constituents of Kleinia odora Growing in Saudi Arabia” (Molecules, 2013).
Read-outs that look alike come from different tables or passages of the source. One block for each compound: values may come before it.

Tests used:
[1] = test system: Chloroquine-resistant P. falciparum K 1-strain; assay: Antiplasmodial activity, Malstat (pLDH) assay; format: cell-based, Plasmodium falciparum; settings: for IC50: 72 h, read-out: P. falciparum IC50; for P. falciparum SI: selectivity index vs MRC-5 cytotoxicity
Protocol: (§1) The integrated panel of microbial screens and standard screening methodologies were adopted as previously described. All assays were performed in triplicate at the Laboratory of Microbiology, Parasitology and Hygiene at the University of Antwerp (Belgium). […] Selectivity of activity was assessed by simultaneous evaluation of cytotoxicity on a fibroblast (MRC-5) cell line.
Chloroquine-resistant P. falciparum K 1-strain was cultured in human erythrocytes O^+ at 37 °C under a low oxygen atmosphere (3% O2, 4% CO2, and 93% N2) in RPMI-1640, supplemented with 10% human serum. Infected human red blood cells (200 μL, 1% parasitaemia, 2% haematocrit) were added to each well and incubated for 72 h. After incubation, test plates were frozen at −20 °C. Parasite multiplication was measured using the Malstat assay, a colorimetric method based on the reduction of 3-acetyl pyridine adenine dinucleotide (APAD) by parasite-specific lactate-dehydrogenase (pLDH).

[2] = Cytotoxicity against MRC-5 cells, resazurin; format: cell-based; settings: human, MRC-5 SV2 fibroblast cells, pure compounds
Protocol: as §1
MRC-5 SV2 cells were cultivated in MEM, supplemented with L-glutamine (20 mM), 16.5 mM sodium hydrogen carbonate and 5% FCS. For the assay, 10^4 MRC-5 cells/well were seeded onto the test plates containing the pre-diluted sample and incubated at 37 °C and 5% CO2 for 72 h. Cell viability was assessed fluorimetrically after 4 h of addition of resazurin. Fluorescence was measured (excitation 550 nm, emission 590 nm) and the results were expressed as % reduction in cell viability compared to control.

[3] = test system: Trypanosoma brucei Squib-427 strain (suramin-sensitive); assay: Antitrypanosomal activity, T. brucei trypomastigotes, resazurin; format: cell-based; settings: for IC50: 72 h, pure compounds; for T. brucei SI: selectivity index vs MRC-5 cytotoxicity
Protocol: as §1
(§2) Trypanosoma brucei Squib-427 strain (suramin-sensitive) was cultured at 37 °C and 5% CO2 in Hirumi-9 medium, supplemented with 10% fetal calf serum (FCS). About 1.5 × 10^4 trypomastigotes/well were added to each well and parasite growth was assessed after 72 h at 37 °C by adding resazurin [35]. For Chagas disease, T. cruzi Tulahuen CL2 (benznidazole-sensitive) was maintained on MRC-5 cells in minimal essential medium (MEM) supplemented with 20 mM L-glutamine, 16.5 mM sodium hydrogen carbonate and 5% FCS. In the assay, 4 × 10^3 MRC-5 cells and 4 × 10^4 parasites were added to each well and after incubation at 37 °C for 7 days, Parasite growth was assessed by adding the […]. The color reaction was read at 540 nm after 4 h and absorbance values were expressed as a percentage of the blank controls.

[4] = test system: T. cruzi Tulahuen CL2 (benznidazole-sensitive); assay: Antitrypanosomal activity, T. cruzi on MRC-5 cells; format: cell-based, Trypanosoma cruzi; settings: for IC50: pure compounds, 7 days; for T. cruzi SI: selectivity index vs MRC-5 cytotoxicity
Protocol: as §1, §2

[5] = test system: L. infantum MHOM/MA(BE)/67 amastigotes; assay: Antileishmanial activity, intracellular amastigotes in primary peritoneal mouse macrophages; format: cell-based, Leishmania infantum; settings: for IC50: pure compounds, intracellular amastigotes, 5 days; for L. infantum SI: selectivity index vs MRC-5 cytotoxicity
Protocol: The integrated panel of microbial screens and standard screening methodologies were adopted as previously described. All assays were performed in triplicate at the Laboratory of Microbiology, Parasitology and Hygiene at the University of Antwerp (Belgium). […] Selectivity of activity was assessed by simultaneous evaluation of cytotoxicity on a fibroblast (MRC-5) cell line. […] L. infantum MHOM/MA(BE)/67 amastigotes were collected from the spleen of an infected donor hamster and used to infect primary peritoneal mouse macrophages. To determine in vitro antileishmanial activity, 3 × 10^4 macrophages were seeded in each well of a 96-well plate. After 2 days outgrowth, 5 × 10^5 amastigotes/well, were added and incubated for 2 h at 37 °C. Pre-diluted plant extracts were subsequently added and the plates were further incubated for 5 days at 37 °C and 5% CO2. Parasite burdens (mean number of amastigotes/macrophage) were microscopically assessed on 500 cells after Giemsa staining of the […] expressed as a percentage of the blank controls without plant extract.

[6] = test system: peripheral blood mononuclear cells; design: method as in PMID 22468852; settings: ref 31; cited from earlier work
L. donovani = settings: cited from earlier work
T. brucei = test system: T. brucei; design: method as in PMID 21782916, PMID 17637068; settings: ref 24, 25, cited from earlier work
P. falciparum = settings: cited from earlier work; for IC50: converted value in brackets, read-out: antiplasmodial IC50
T. cruzi = test system: T. cruzi; design: method as in PMID 12802734; settings: ref 26; cited from earlier work
[7] = Plasmodium falciparum, pure compounds, K1 strain
[8] = Trypanosoma cruzi, TULAHUEN, MRC5, 168 h
[9] = Leishmania infantum, Macrophage, 120 h
[10] = at the highest concentration tested (64 µg/mL)

Compound: C[C@@H]1CC[C@]2(C)CC[C@]3(C)C(=C[C@@H](O)C4[C@@]5(C)CC[C@H](O)C(C)(C)C5CC[C@]43C)C2[C@H]1C (stereo partly drawn) [Cmpd. 5, 3β,11α-Dihydroxyurs-12-ene]
- IC50 [1, 7]: 23.9 ± 5.7 µM
- IC50 at 72 h [2]: > 64 µM
- IC50 ([3]; Trypanosoma brucei): 7.9 µM
- IC50 [3]: 7.8 ± 1.8 µM
- T. brucei SI [3]: >8.2
- IC50 [4, 8]: 8.1 ± 1.8 µM
- T. cruzi SI [4]: >7.9
- IC50 [5, 9]: 3.2 ± 0.9 µM
- L. infantum SI [5]: >20
- L. infantum SI ([5]; listed as Compound 5): > 20

Compound: C[C@@H]1CCC23CC[C@]4(C)[C@@](C=CC5[C@@]6(C)CC[C@H](O)C(C)(C)C6CC[C@]54C)(OC2=O)C3[C@H]1C (stereo partly shown) [Cmpd. 6, 3-Hydroxy-13,28-epoxyurs-11-en-28-one]
- cytotoxicity towards peripheral blood mononuclear cells [6]: without cytotoxicity
- IC50 [1, 7]: > 64 µM
- antiprotozoal activity (P. falciparum) [1, 10]: devoid of any antiprotozoal activity
- IC50 at 72 h [2]: > 64 µM
- IC50 (L. donovani; ref 31): 192 µM
- IC50 ([3]; Trypanosoma brucei): 40.9 ± 8.1 µM
- IC50 [4, 8]: > 64 µM
- antiprotozoal activity (T. cruzi) [4, 10]: devoid of any antiprotozoal activity
- IC50 [5, 9]: > 64 µM
- antiprotozoal activity (L. infantum) [5, 10]: devoid of any antiprotozoal activity

Compound: C[C@@H]1CC[C@]2(C)CC[C@]3(C)C(=C[C@@H](O)C4[C@@]5(C)CC[C@H](O)C(C)(C)C5CC[C@]43C)C2[C@H]1C (stereo partly drawn) (hydrate or solvate) [Cmpd. 5, 3β,11α-Dihydroxyurs-12-ene]
- melting point: 205 °C

Compound: C[C@H]1[C@H](C)CC[C@]2(C(=O)O)CC[C@]3(C)C(=CC[C@@H]4[C@@]5(C)CC[C@H](O)C(C)(C)[C@@H]5CC[C@]43C)[C@H]12 [Cmpd. 3, 3β-hydroxy-urs-12-en-28-oic acid]
- IC50 (T. brucei; converted value in brackets): 2.2 µM
- T. brucei IC50 (T. brucei): 1.0 ± 0.2 µg/mL
- IC50 [1, 7]: 29.7 ± 5.9 µM
- P. falciparum SI [1]: <1
- IC50 at 72 h [2]: 11.4 ± 2.1 µM
- IC50 (L. donovani; converted value in brackets, ref 27): 7.6 µM
- L. donovani IC50 (L. donovani; ref 27): 3.5 µg/mL
- IC50 (P. falciparum; ref 28): 6.8 µM
- IC50 (P. falciparum; ref 29): 10.7 µM
- antiplasmodial IC50 (P. falciparum; ref 28): 3.1 µg/mL
- antiplasmodial IC50 (P. falciparum; ref 29): 4.9 µg/mL
- IC50 ([3]; Trypanosoma brucei): 2.2 ± 0.6 µM
- T. brucei SI [3]: 5.2
- IC50 [4, 8]: 8.8 ± 2.3 µM
- T. cruzi SI [4]: 1.3
- IC50 [5, 9]: 7.4 ± 1.9 µM
- L. infantum SI [5]: 1.5
- IC50 (T. cruzi): 21 µM

Compound: CCN(CC)CCCC(C)Nc1ccnc2cc(Cl)ccc12 (stereo not shown) [Chloroquine, reference compound]
- IC50 ([1]; Plasmodium falciparum): 0.3 ± 0.05 µM

Compound: C[C@H]1[C@H](C)CC[C@@]2(C)[C@@H]1C1=CC[C@@H]3[C@@]4(C)CC[C@H](O)C(C)(C)[C@@H]4CC[C@@]3(C)[C@]1(C)C[C@@H]2O [Cmpd. 4, urs-12-ene-3β,16β-diol]
- IC50 [1, 7]: 9.3 to 9.9 µM
- IC50 ([1]; pure compounds, K1 strain): 9.7 ± 3.2 µM
- P. falciparum SI [1]: >6.6
- P. falciparum SI ([1]; listed as Brein (4)): > 6.5
- melting point: 221 °C
- IC50 at 72 h [2]: > 64 µM
- IC50 ([3]; Trypanosoma brucei): 2.3 ± 0.4 µM
- T. brucei SI [3]: >27.8
- T. brucei SI ([3]; listed as Brein (4)): > 27.8
- IC50 [4, 8]: 9.3 to 9.9 µM
- IC50 [4]: 9.9 ± 2.6 µM
- T. cruzi SI [4]: >6.5
- T. cruzi SI ([4]; listed as Brein (4)): > 6.5
- IC50 [5, 9]: 9.3 to 9.9 µM
- IC50 [5]: 9.3 ± 2.2 µM
- L. infantum SI [5]: >6.9
- L. infantum SI ([5]; listed as Brein (4)): > 6.5

- IC50 ([3]; Trypanosoma brucei): 0.03 ± 0.01 µM
Compound: Cc1ccc(C(=O)Nc2ccc(S(=O)(=O)O)c3cc(S(=O)(=O)O)cc(S(=O)(=O)O)c23)cc1NC(=O)c1cccc(NC(=O)Nc2cccc(C(=O)Nc3cc(C(=O)Nc4ccc(S(=O)(=O)O)c5cc(S(=O)(=O)O)cc(S(=O)(=O)O)c45)ccc3C)c2)c1 [Suramine, reference compound]

Compound: O=C(Cn1ccnc1[N+](=O)[O-])NCc1ccccc1 [Benznidazole, reference compound]
- IC50 [4, 8]: 1.9 ± 0.3 µM

- IC50 [5, 9]: 10.4 ± 2.1 µM
Compound: CCCCCCCCCCCCCCCCOP(=O)([O-])OCC[N+](C)(C)C [Miltefosine, reference compound]
- IC50 (L. donovani; ref 31): 9.31 µM
